Experiments:
[1] = molecular target: Vascular endothelial growth factor receptor 2 (Homo sapiens, UniProt P35968); assay: Inhibitory Activities of the Compounds on VEGFR2
Procedure: Detect compounds on VEGFR2 (KDR) by mobility shift assay. The initial test concentration of a compound was 1000 nM, 3 times dilution, 10 concentrations, and detection in duplicate. Nintedanib (Selleckchem, Cat. S1010) was used as the positive control compound. The operation method was briefly described as follows: kinase VEGFR2 (Carna, Cat. 08-191) at the final concentration of 0.5 nM and the test compound were mixed in the Optiplate-384F well plate and incubated for 10 minutes at room temperature. Then, ATP at a final concentration of 95 μM and 3 μM Kinase substrate 22 (Gill Biochemical (glbiochem), Cat. 112393) were added. After mixing, react at room temperature for 30 minutes. Add stop detection solution to terminate the reaction and read the conversion rate with Caliper EZ ReaderlI.

Histone deacetylase 6 = molecular target: T1, Histone deacetylase 6 (Homo sapiens, UniProt Q9UBN7); assay: Inhibitory Activity of the Compounds on HDAC6
T1 sequence (Q9UBN7 whole entry): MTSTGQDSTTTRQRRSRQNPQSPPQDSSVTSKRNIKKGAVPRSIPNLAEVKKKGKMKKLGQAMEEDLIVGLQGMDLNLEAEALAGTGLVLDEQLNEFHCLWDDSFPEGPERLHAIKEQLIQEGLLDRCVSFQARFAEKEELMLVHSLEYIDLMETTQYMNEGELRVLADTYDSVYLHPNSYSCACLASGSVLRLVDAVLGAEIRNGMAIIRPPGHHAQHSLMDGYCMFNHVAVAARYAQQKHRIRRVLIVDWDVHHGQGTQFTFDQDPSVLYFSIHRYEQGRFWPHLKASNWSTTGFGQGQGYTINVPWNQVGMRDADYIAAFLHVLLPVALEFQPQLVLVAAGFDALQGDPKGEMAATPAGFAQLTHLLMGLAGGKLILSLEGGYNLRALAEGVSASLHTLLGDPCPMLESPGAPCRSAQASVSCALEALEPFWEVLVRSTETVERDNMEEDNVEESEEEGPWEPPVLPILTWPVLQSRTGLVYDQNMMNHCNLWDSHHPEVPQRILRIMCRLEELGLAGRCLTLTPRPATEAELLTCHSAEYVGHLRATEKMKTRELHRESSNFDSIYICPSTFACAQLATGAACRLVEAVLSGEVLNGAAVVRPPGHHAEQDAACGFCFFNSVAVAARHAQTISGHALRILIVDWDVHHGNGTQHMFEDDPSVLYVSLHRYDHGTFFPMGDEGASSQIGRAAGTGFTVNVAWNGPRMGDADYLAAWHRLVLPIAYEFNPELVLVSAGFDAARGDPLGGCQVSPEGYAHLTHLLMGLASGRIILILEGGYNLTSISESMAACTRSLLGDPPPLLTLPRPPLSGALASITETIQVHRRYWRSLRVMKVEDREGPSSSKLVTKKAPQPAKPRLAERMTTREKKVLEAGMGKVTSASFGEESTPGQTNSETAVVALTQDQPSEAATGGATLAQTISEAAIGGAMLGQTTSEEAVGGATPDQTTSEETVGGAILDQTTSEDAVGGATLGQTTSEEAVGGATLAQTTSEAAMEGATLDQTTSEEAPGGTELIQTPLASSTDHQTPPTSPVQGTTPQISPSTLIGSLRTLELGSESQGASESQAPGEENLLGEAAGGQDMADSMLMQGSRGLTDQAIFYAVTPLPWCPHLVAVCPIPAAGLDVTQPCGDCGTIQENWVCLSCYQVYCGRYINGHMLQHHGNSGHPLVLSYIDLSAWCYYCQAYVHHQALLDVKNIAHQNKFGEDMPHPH
Procedure: Prepare a 10 mM stock solution of a compound with DMSO. Take 10 μl of stock solution and dilute with 90 μl DMSO to become a 1 mM working solution. […] Add 30 μl trypsin/SAHA mixture (20 mM Hepes pH 8.0, 100 mM NaCl, 10 mM SAHA, 0.01 mg/ml trypsin), incubate at 23° C. for 60 minutes to terminate the reaction. Finally, read fluorescence data by Envision (390 nm excitation, 460 nm emission). […] Finally, analyze the data by XLfit5 software and calculate the IC50 value of the compound. Vorinostat (SAHA) was a positive reference compound.

Vascular endothelial growth factor receptor 2, sequence (P35968 whole entry): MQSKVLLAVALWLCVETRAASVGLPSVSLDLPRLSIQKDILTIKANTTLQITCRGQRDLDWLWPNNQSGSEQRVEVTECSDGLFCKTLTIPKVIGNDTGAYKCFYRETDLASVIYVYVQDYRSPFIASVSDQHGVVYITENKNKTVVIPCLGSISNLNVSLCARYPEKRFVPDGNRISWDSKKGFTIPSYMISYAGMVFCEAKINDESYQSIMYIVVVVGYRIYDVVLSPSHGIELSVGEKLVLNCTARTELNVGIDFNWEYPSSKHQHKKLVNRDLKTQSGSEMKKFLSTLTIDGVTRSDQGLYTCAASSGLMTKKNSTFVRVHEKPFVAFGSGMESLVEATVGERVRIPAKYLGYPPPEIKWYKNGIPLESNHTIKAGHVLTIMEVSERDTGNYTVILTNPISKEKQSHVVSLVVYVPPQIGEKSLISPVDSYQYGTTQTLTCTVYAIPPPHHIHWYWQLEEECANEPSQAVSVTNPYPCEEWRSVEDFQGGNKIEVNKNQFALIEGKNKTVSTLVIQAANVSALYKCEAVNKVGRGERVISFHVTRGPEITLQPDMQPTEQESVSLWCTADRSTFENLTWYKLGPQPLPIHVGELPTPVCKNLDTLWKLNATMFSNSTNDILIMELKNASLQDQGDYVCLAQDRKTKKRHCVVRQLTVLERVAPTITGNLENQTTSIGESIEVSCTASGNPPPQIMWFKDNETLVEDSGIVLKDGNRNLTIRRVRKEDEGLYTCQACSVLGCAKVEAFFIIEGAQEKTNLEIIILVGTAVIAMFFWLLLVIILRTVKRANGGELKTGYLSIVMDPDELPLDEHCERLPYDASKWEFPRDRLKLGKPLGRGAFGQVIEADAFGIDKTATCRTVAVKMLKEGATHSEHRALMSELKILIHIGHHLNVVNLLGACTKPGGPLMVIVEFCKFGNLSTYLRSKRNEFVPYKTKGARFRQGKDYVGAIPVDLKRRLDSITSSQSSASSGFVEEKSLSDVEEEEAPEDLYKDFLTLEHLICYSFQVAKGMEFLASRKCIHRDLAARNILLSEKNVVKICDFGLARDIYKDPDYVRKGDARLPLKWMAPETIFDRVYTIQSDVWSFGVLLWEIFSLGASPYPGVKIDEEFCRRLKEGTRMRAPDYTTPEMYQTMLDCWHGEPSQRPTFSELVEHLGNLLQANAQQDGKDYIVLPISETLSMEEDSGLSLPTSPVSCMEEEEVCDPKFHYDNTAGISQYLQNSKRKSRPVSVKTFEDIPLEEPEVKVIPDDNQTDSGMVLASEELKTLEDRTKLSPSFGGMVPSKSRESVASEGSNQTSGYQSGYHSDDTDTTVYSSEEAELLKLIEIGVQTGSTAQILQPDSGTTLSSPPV

SMILES	IC50 [1] [µM]	IC50 (Histone deacetylase 6) [µM]
COc1cc2c(Oc3ccc(NC(=O)C4(C(=O)Nc5ccc(F)cc5)CC4)cc3F)ccnc2cc1OCCCNCCCSC(C)=O [US12304898, Example 50]	0.0066	–
COc1cc2c(Oc3ccc(NC(=O)C4(C(=O)Nc5ccc(F)cc5)CC4)cc3F)ccnc2cc1OCCCNCCCS [US12304898, Example 51]	0.0077	–
COc1cc2c(Oc3ccc(NC(=O)C4(C(=O)Nc5ccc(F)cc5)CC4)cc3F)ccnc2cc1OCCCN(C)CCCSC(C)=O [US12304898, Example 52]	0.0032	–
COc1cc2c(Oc3ccc(NC(=O)C4(C(=O)Nc5ccc(F)cc5)CC4)cc3F)ccnc2cc1OCCCN(C)CCCS [US12304898, Example 53]	0.0047	–
COc1cc2c(Oc3ccc(NC(=O)C4(C(=O)Nc5ccc(F)cc5)CC4)cc3F)ccnc2cc1OCCCCCNC(=O)CSC(C)=O [US12304898, Example 57]	0.02	0.0483
COc1cc2c(Oc3ccc(NC(=O)C4(C(=O)Nc5ccc(F)cc5)CC4)cc3F)ccnc2cc1OCCCCCNC(=O)CS [US12304898, Example 58]	0.025	0.0154
COc1cc2c(Oc3ccc(NC(=O)C4(C(=O)Nc5ccc(F)cc5)CC4)cc3F)ccnc2cc1OCCCCNC(=O)CSC(C)=O [US12304898, Example 61]	0.012	0.0299
COc1cc2c(Oc3ccc(NC(=O)C4(C(=O)Nc5ccc(F)cc5)CC4)cc3F)ccnc2cc1OCCCCCCNC(=O)CSC(C)=O [US12304898, Example 63]	0.036	0.0978
COc1cc2c(Oc3ccc(NC(=O)C4(C(=O)NC5CC5)CC4)cc3F)ccnc2cc1OCCCCCNC(=O)CSC(C)=O [US12304898, Example 67]	0.03	–
CC(=O)SCC(=O)NCCCCCOc1cc2nccc(Oc3ccc(NC(=O)C4(C(=O)NC5CC5)CC4)cc3F)c2cc1C(N)=O [US12304898, Example 73]	0.045	–

From BindingDB's records for patent US12304898 (Primegene (Beijing), 2025)
